Laboratory results as given in US11058665B2, “Methods for treating brain metastasis” (MEMORIAL SLOAN-KETTERING CANCER CENTER, priority 2014, dated 2021).
Counter-ions that a name gives are not always drawn.

Experiments:
[1] = system: gap junction dye transfer from astrocytes to MDA231-BrM2 cells; experiment: Dye transfer assay (calcein) from astrocytes to cancer cells, flow cytometry; format: cell-based, human; conditions: for dye transfer from astrocytes to cancer cells: MDA231-BrM2 cells, flow cytometry, FIG. 5a
Experimental: Dye Transfer and EdU Transfer Assays.
Monolayers of cancer cells or astrocytes were labeled with 2.5 gig/ml calcein Red-Orange AM dye (Life Technologies) at 37° C. for 30 min. Single cell suspensions were mixed at a ratio of 2:1 labeled:unlabeled cells for 6 h. Certain experiments used a mix of three cell populations, MDA231-BrM2 (GFP+), HBMEC (pre-labeled with Cell Proliferating Dye Fluor@670, eBioscience), and unlabeled astrocytes. Dye transfer was visualized by Zeiss LSM 5 Live confocal microscopy (20-min time-lapse) or quantified by FACSCalibur flow cytometry (BD Biosciences) at different time points. For DNA transfer assays, cancer cells were labeled overnight with EdU (10 μM, Molecular Probes) and maintained in culture for additional 3 days. Single cell suspensions of labeled cancer cells and astrocytes were mixed at 2:1 ratio for 6 h. EdU transfer was visualized using Zeiss LSM 5 Live confocal microscopy or quantified by FACSCalibur flow cytometry (BD Biosciences) following the manufacturer's instructions (Molecular Probes).

[2] = system: release of IFNα and TNFα in co-cultures of astrocytes and cancer cells; experiment: ELISA of IFNα and TNFα in conditioned media from MDA231-BrM2 cell and astrocyte co-cultures; format: cell-based, human; conditions: FIG. 5b
Experimental: Cancer Cell and Astrocyte Co-Culture Experiments.
Astrocytes and cancer cells were mixed at ratio of 1:1. For apoptosis assays, overnight co-cultures were treated with 500 ng/ml sFasL (Peprotech) in serum free media, 500 nM carboplatin (Sigma-Aldrich) or 25 nM Paclitaxel (Sigma-Aldrich) for 24 h. Single cell suspensions were stained with APC-conjugated cleaved caspase 3 antibody (Cell Signaling), apoptotic GFP+ cancer cells were detected by flow cytometery. For translating ribosome affinity purification (TRAP), EGFP-L10a expressing cancer cells were co-cultured with astrocytes for 24 h. Following previously published protocols, (Heiman, Schaefer et al. 2008, Zhang, Jin et al. 2013) mRNA purified from cancer cells were was used for library construction with TruSeq RNA Sample Prep Kit v2 (Illumina) following the manufacturer's instructions. Samples were barcoded and run on a Hiseq 2000 platform in a 50 bp/50 bp paired-end run, using the TruSeq SBS Kit v3 (Illumina). An average of 50 million paired reads were generated per sample. For conditioned media analysis, media were collected after 24 h, and cytokines in the conditioned media were either identified using Human Cytokine Array (R&D systems) or measured by IFNα or TNFα ELISA kits (R&D systems). To detect the activity of IFNα or TNFα in the collected conditioned media, cancer cells were treated with the collected conditioned media for 2 h and phosphorylation status of STAT1 or NF-κB p65 was determined by western blotting. For cGAMP and […] activation experiments, cancer cells and astrocytes were co-cultured for 18 h. The phosphorylation status of TBK1, IRF3 was determined by western immunoblotting. Nuclear translocation of IRF3 was determined by immunofluorescence staining with Zeiss LSM 5 Live confocal microscopy. cGAMP levels were determined by LC-MS/MS.

[3] = system: MDA231-BrM2 cells, H2030-BrM3 cells, KRas/p53-393N1 cells (brain metastases); experiment: Brain metastasis assay, drug given daily from day 1 after arterial inoculation of cancer cells, BLI; format: in vivo; conditions: treated from day 1; MDA231-BrM2 or H2030-BrM3 in immunodeficient mice, KRas/p53-393N1 in immunocompetent mice; Tonabersat 10 mg/kg/day, meclofenamate 20 mg/kg/day i.p.
Experimental: (§1) All experiments using animals were done in accordance to protocols approved by the MSKCC Institutional Animal Care and Use Committee. Athymic NCR nu/nu mice (NCI-Frederick), Cr:NIH bg-nu-xid mice (NCI-Frederick) and B6129SF1/J mice (Jackson Laboratory) were use at 5-6 weeks of age. For long-term brain metastasis assays we followed previously described procedures (Bos, Nguyen et al. 2010). In brief, 10^4 MDA231-BrM2 cells, 5×10^4 H2030-BrM3 cells, or 10^5 393N1 cells suspended in 100 μl of PBS were injected into the left cardiac ventricle. At the experimental endpoint, anesthetized mice (ketamine 100 mg/kg, xylazine 10 mg/kg) were injected retro-orbitally with D-luciferin (150 mg/kg), and brain colonization was quantified by ex vivo Bio-luminescent imaging (BLI). For short-term (7-day and 14-day) brain metastasis experiments, we injected 5×10^5 cells. TRITC dextran (70 KD) (Life Technologies) was intravenously injected to stain vascular structures. For inducible knockdown experiments, mice were given doxycycline hyclate (Sigma-Aldrich) in the drinking water (2 mg/mL) and the diet (Harlan) 14 days after injection of cancer cells. For lung colonization assays, 2×10^5 MDA231-BrM2 cells in 100 piL PBS were injected into the lateral tail vein. […] BLI was performed using an IVIS Spectrum Xenogen instrument (Caliper Life Sciences) and analysed using Living Image software, v. […]

[4] = system: MDA231-BrM2 cells as lung metastatic lesions; experiment: Lung colonization assay, MDA231-BrM2 cells, BLI; format: in vivo, mice; conditions: FIG. 15d; same treatment from day 1
Experimental: as §1

[5] = system: MDA231-BrM2 cells as orthotopic tumours; experiment: Orthotopic tumour implantation in mammary fat pad, BLI; format: in vivo, mice; conditions: FIG. 15c, same treatment
Experimental: as §1

[6] = system: MDA231-BrM2 cells (brain metastatic lesions); experiment: Established brain metastasis treatment, starting 14 days after inoculation with MDA231-BrM2 cells, BLI; format: in vivo, mice; conditions: for progression of brain metastatic lesions (BLI): treatment from day 14, 35-day end point, Tonabersat 10 mg/kg, meclofenamate 20 mg/kg, carboplatin 50 mg/kg/5 days, FIG. 5h,i
Experimental: All experiments using animals were done in accordance to protocols approved by the MSKCC Institutional Animal Care and Use Committee. Athymic NCR nu/nu mice (NCI-Frederick), Cr:NIH bg-nu-xid mice (NCI-Frederick) and B6129SF1/J mice (Jackson Laboratory) were use at 5-6 weeks of age. For long-term brain metastasis assays we followed previously described procedures (Bos, Nguyen et al. 2010). In brief, 10^4 MDA231-BrM2 cells, 5×10^4 H2030-BrM3 cells, or 10^5 393N1 cells suspended in 100 μl of PBS were injected into the left cardiac ventricle. At the experimental endpoint, anesthetized mice (ketamine 100 mg/kg, xylazine 10 mg/kg) were injected retro-orbitally with D-luciferin (150 mg/kg), and brain colonization was quantified by ex vivo Bio-luminescent imaging (BLI). For short-term (7-day and 14-day) brain metastasis experiments, we injected 5×10^5 cells. TRITC dextran (70 KD) (Life Technologies) was intravenously injected to stain vascular structures. For inducible knockdown experiments, mice were given doxycycline hyclate (Sigma-Aldrich) in the drinking water (2 mg/mL) and the diet (Harlan) 14 days after injection of cancer cells. For lung colonization assays, 2×10^5 MDA231-BrM2 cells in 100 piL PBS were injected into the lateral tail vein. For orthotopic tumour implantation, 5×10^3 cells in 50 piL of 1:1 mix of PBS/growth factor reduced matrigel (BD Biosciences) were injected into the 4th right mammary fat pad of female mice. For drug treatment experiments, mice were intraperitoneally injected with carboplatin (Hospira) (50 mg/kg/5 days), Tonabersat (MedChem Express) (10 mg/kg/day), or meclofenamic acid sodium salt (Sigma-Aldrich) (20 mg/kg/day). Vehicle (10% DMSO in Polyethylene glycol 400) was used in control mice. BLI was performed using an IVIS Spectrum Xenogen instrument (Caliper Life Sciences) and analysed using Living Image software, v. 2.50. For brain metastasis assays, 8-10 mice were used in each group. For drug treatment experiments, mice were inoculated with cancer cells and randomly assigned to treatment groups. Gap junction modulators and chemotherapeutic agents were blindly administered in the MSKCC Antitumour Assessment Core.

[7] = cited from earlier work
[8] = system: unique stereoselective binding site in astrocytes; conditions: cited from earlier work
[9] = system: cortical spreading depression; conditions: gap-junction-mediated pathophysiological process; cited from earlier work
[10] = system: trigeminal ganglion neuronal-satellite cell signaling; conditions: animal models; cited from earlier work
[11] = in vivo; cited from earlier work
[12] = after systemic administration; cited from earlier work
[13] = system: brain metastases from breast or lung cancer; conditions: cited from earlier work
Cx43 gap junction = conditions: cited from earlier work
epileptogenesis = conditions: in vivo; cited from earlier work

| Compound | dye transfer from astrocytes to cancer cells [1] | release of IFNα in co-cultures [2] | release of TNFα in co-cultures [2] | emergence of brain metastases (BLI) [3] | growth of MDA231-BrM2 cells as lung metastatic lesions [4] | growth of MDA231-BrM2 cells as orthotopic tumours [5] | progression of brain metastatic lesions (BLI) [6] | tolerability and safety in patients with migraine ([7]; patients with migraine) | binding to site in astrocytes [8] | cortical spreading depression [9] | trigeminal ganglion neuronal-satellite cell signaling [10] | oral bioavailability [11] | dye transfer from astrocytes to MDA231-BrM2 cells, compared with Cx43 depletion ([1]; Carbenoxolone 50 uM, FIG. 8b) | brain metastasis (BLI) in inducible shRNA experiment ([6]; carboplatin alone 50 mg/kg/5 days starting on day 14, compared with depletion of Cx43 or PCDH7, FIG. 5f,g) | passage of the BBB [12] | overall survival in patients with brain metastases [13] | Cx43 gap junction gating (Cx43 gap junction) | epileptogenesis in animal models (epileptogenesis) | systemic tolerability ([7]; in vivo) |
| --- | --- | --- | --- | --- | --- | --- | --- | --- | --- | --- | --- | --- | --- | --- | --- | --- | --- | --- | --- |
| CC(=O)c1ccc2c(c1)[C@H](NC(=O)c1ccc(F)c(Cl)c1)[C@H](O)C(C)(C)O2 [Tonabersat] | inhibited dye transfer | inhibited | inhibited | prevented the emergence of brain metastases | did not restrict growth | did not restrict growth | significantly inhibited progression of metastatic lesions | systemically well-tolerated and safe | binds to a unique stereoselective binding site in astrocytes | inhibits | inhibits | orally bioavailable |  |  |  |  |  |  |  |
| CC1(C)[C@@H](OC(=O)CCC(=O)O)CC[C@]2(C)[C@H]3C(=O)C=C4[C@@H]5C[C@@](C)(C(=O)O)CC[C@]5(C)CC[C@@]4(C)[C@]3(C)CC[C@@H]12 [carbenoloxone, carbenoxolone] |  |  |  |  |  |  |  |  |  |  |  |  | extent of dye-transfer inhibition after Cx43 depletion was comparable |  |  |  |  |  |  |
| N.N.O=C([O-])C1(C(=O)[O-])CCC1.[Pt+2] [carboplatin] |  |  |  |  |  |  | minimally inhibited brain metastasis growth |  |  |  |  |  |  | inhibited brain metastasis to a similar extent as depletion of Cx43 or PCDH7 | crosses the BBB | modest improvement in overall survival |  |  |  |
| Cc1ccc(Cl)c(Nc2ccccc2C(=O)O)c1Cl [meclofenamate, meclofenamic acid sodium salt] | inhibited dye transfer | inhibited | inhibited | prevented the emergence of brain metastases | did not restrict growth | did not restrict growth | significantly inhibited progression of metastatic lesions |  |  |  |  | orally bioavailable |  |  | passes the BBB |  | inhibits Cx43 gap junction gating | inhibits epileptogenesis | well tolerated systemically |
